Experimental data published in a compilation of properties of binary mixtures (doi:10.1016/j.jct.2012.02.027).

Assay: xn = mol fraction of the nth substance listed
Conditions: 101 kPa

O + CC[n+]1ccn(C)c1.N#C[N-]C#N
Conditions | viscosity [mPa·s]
298.15 K, x1 = 1 | 0.89

CC[n+]1ccn(C)c1.N#C[N-]C#N + CCO
viscosity [mPa·s]
Conditions | 298.15 K | 313.15 K | 328.15 K | 343.15 K
x2 = 0 | 14.9 | – | – | 5.48
x2 = 0.102 | 12.69 | 8.69 | 6.32 | 4.85
x2 = 0.1981 | 10.8 | 7.53 | 5.5 | –
x2 = 0.279 | 9.27 | 6.58 | 4.86 | 3.81
x2 = 0.3596 | 7.85 | – | – | 3.37
x2 = 0.4741 | 6.04 | 4.45 | 3.47 | 2.76
x2 = 0.6028 | – | 3.31 | 2.59 | 2.13
x2 = 0.6867 | 3.47 | 2.65 | 2.09 | 1.7
x2 = 0.7678 | – | 2.1 | 1.67 | 1.37
x2 = 0.8503 | 2.08 | 1.63 | 1.3 | 1.1
x2 = 0.9327 | 1.53 | 1.19 | 0.93 | 0.75

O + CC(=O)[O-].CC[n+]1ccn(C)c1
x1 = 1
Conditions | viscosity [mPa·s]
328.15 K | 0.51
343.15 K | 0.41

CCO + CC(=O)[O-].CC[n+]1ccn(C)c1
x1 = 1
Conditions | viscosity [mPa·s]
298.15 K | 1.09
313.15 K | 0.83
328.15 K | 0.64
343.15 K | 0.5

CC(=O)[O-].CC[n+]1ccn(C)c1 + CCO
viscosity [mPa·s]
Conditions | 298.15 K | 313.15 K | 328.15 K | 343.15 K
x2 = 0 | 132.9 | 57.7 | – | 18.1
x2 = 0.1059 | 92.3 | – | 24.1 | –
x2 = 0.1638 | 75 | 36.9 | 21.14 | 13.51
x2 = 0.2471 | 54.2 | – | 17.22 | 11.24
x2 = 0.3504 | 35.2 | 20.3 | 12.77 | –
x2 = 0.4165 | 26.5 | 16.06 | 10.47 | –
x2 = 0.4824 | 19.82 | 12.48 | 8.44 | 6.05
x2 = 0.5572 | 14.11 | – | 6.48 | 4.76
x2 = 0.6646 | 8.27 | 5.79 | 4.27 | 3.27
x2 = 0.7494 | 5.35 | – | 2.96 | 2.33
x2 = 0.8666 | – | 2.02 | 1.59 | 1.28

CC[n+]1ccn(C)c1.N#C[N-]C#N + O
viscosity [mPa·s]
Conditions | 298.15 K | 313.15 K | 328.15 K | 343.15 K
x2 = 0 | – | 10.07 | 7.26 | –
x2 = 0.1299 | 12.78 | 8.71 | 6.33 | 4.84
x2 = 0.2248 | – | – | 5.65 | 4.34
x2 = 0.3042 | – | 7.04 | 5.11 | 3.94
x2 = 0.4308 | – | 5.8 | 4.3 | 3.33
x2 = 0.5429 | 6.96 | 4.81 | 3.58 | 2.78
x2 = 0.6534 | 5.41 | 3.81 | 2.84 | 2.23
x2 = 0.7355 | 4.41 | 3.11 | 2.32 | 1.8
x2 = 0.7944 | – | 2.56 | – | 1.48
x2 = 0.8803 | – | – | 1.31 | 1.04
x2 = 0.953 | 1.47 | – | 0.82 | 0.66

CCO + CC[n+]1ccn(C)c1.N#C[N-]C#N
x1 = 1
Conditions | viscosity [mPa·s]
298.15 K | 1.09
343.15 K | 0.5

CC(=O)[O-].CC[n+]1ccn(C)c1 + O
viscosity [mPa·s]
Conditions | 298.15 K | 313.15 K | 328.15 K | 343.15 K
x2 = 0 | – | 57.7 | 30.3 | 18.1
x2 = 0.0992 | – | 49.5 | – | 16.46
x2 = 0.222 | 89.2 | 42.3 | 23.49 | –
x2 = 0.3233 | 73 | 36 | 20.48 | 13.21
x2 = 0.4207 | – | 30.2 | – | 11.11
x2 = 0.5408 | – | – | 13.85 | –
x2 = 0.6135 | – | 19.09 | 11.44 | 7.48
x2 = 0.6805 | 28.8 | 15.63 | – | –
x2 = 0.7482 | 21.9 | 11.99 | 7.32 | 4.87
x2 = 0.8134 | 15.44 | 8.51 | – | 3.57
x2 = 0.9067 | 6.16 | 3.74 | 2.54 | 1.81
